# Assay results reported in patent US7259171B2, “Di and trifluoro-triazolo-pyridines anti-inflammatory compounds” (Pfizer Inc., priority 2002, dated 2007).
compound,measurement,value
"CC(C)c1nnc2ccc(-c3ocnc3-c3c(F)cccc3F)cn12 [Example 1, 6-[4-(2,6-Difluoro-phenyl)-oxazol-5-yl]-3-isopropyl-[1,2,4]triazolo[4,3-a]pyridine]",melting point,175.7 to 176.2 °C
